# Test results reported in paper PMC10396310, “A succinate/SUCNR1-brush cell defense program in the tracheal epithelium” (Science Advances, 2023).
# Target: T1, succinate receptor 1 (SUCNR1; GPR91) (Mus musculus, UniProt Q99MT6)
# T1 construct: native receptor in tracheal TRPM5+ brush cells (ex vivo whole mount)
# T1 sequence (Q99MT6 1-317): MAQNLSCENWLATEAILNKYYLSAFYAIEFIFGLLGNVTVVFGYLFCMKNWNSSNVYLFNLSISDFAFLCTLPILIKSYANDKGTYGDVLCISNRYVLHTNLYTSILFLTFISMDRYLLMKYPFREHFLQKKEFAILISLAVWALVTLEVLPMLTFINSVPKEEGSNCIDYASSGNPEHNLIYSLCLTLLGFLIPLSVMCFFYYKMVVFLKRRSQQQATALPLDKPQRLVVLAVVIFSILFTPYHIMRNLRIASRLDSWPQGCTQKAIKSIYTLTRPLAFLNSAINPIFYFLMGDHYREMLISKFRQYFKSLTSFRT
# Experiment: Ca2+ imaging (GCaMP6f) concentration-response in brush cells; Ca2+ wave lost in Sucnr1-/- mice
smiles,measurement,value
O=C(O)CCC(=O)O [succinate],EC50,335 ± 5 µM
